Legend:
KRas G12C = KRas G12C (Homo sapiens, UniProt P01116, G12C); assay: Cellular inhibition of KRas G12C measured by Phospho-ERK in NCI-H358 cells; assay type: cell-based; conditions: pERK(Thr202/Tyr204) normalized with GAPDH, NCI-H358 cells, 3 hours; read-out: IC50
In short: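 NCI-H358 cells were allowed to attach for 8-12 hours, then exposed to compounds for 3 hours at 0.5% DMSO final. After formaldehyde fixation and methanol permeabilization, phospho-ERK (Thr202/Tyr204) was detected by in-cell immunofluorescence and normalized to GAPDH; IC50 came from a 4-parameter fit of percent-of-DMSO values.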

[1] = In vitro stability in human whole blood; assay type: in vitro ADME; conditions: male, whole blood diluted to 50% with PBS, pH 7.4, human whole blood diluted to 50% with PBS, 5 μM, 37° C., 240-minute incubation, read-out: Compound Half-life
From the text: Materials: The following reagents were used as received: acetonitrile (HPLC grade, Burdick & Jackson, Madison, Wis.), phosphate buffered saline (PBS), pH 7.4 (Sigma-Aldrich, Co., St. Louis, Mo.), water (HPLC grade, JT Baker, Phillipsburg, N.J.), DMSO (EM Science, Merck KGaA, Darmstadt, Germany) and isopropanol (IPA, reagent grade, EMD Chemicals, Gibbstown, N.J.). Propantheline and esmolol (Sigma-Aldrich) were used as the positive control compounds in the assay. Diazepam (Sigma-Aldrich) was used as an internal standard for quantitation. Human whole blood was obtained from BioIVT (Westbury, N.Y.) […]. All other reagents and solvents were of the highest analytical grade supplied by Sigma (St. Louis, Mo.) and were used as received.
Blood Incubations: The in vitro stability of representative KRas G12C inhibitor compounds of the present invention in the presence whole blood was conducted in the following manner. Esmolol or propantheline, which are known to undergo ester hydrolysis by esterases in blood and plasma, were used as the positive controls in the assays. A 10 mM stock solution of propantheline, esmolol, or a compound of the present invention in DMSO was diluted to 500 μM with DMSO. Aliquots of whole blood (600 μL), in triplicate, were placed in the appropriate wells of a polypropylene 96-deep well plate (Axygen Scientific, Union City, Calif.). The blood was diluted to 50% using PBS, pH 7.4 (600 μL). The diluted blood was pre-incubated for 15 minutes at 37° C. Each well was dosed with 12 μL of the 500 μM DMSO stock simultaneously for a final test concentration of 5 μM. The plates were mixed at 600 rpm for 10 seconds on a plate shaker (IKA MTS 2/4 Digital Microtiter Shaker, VWR). Aliquots of 100 μL from each well of whole blood were transferred to three separate 96-deep well plates labeled 0, 60, or 240 minutes. At the end of each designated time point, the red blood cells were lysed with 100 μL of water, mixed at 600 rpm for one minute, and stopped with 800 μL of acetonitrile containing IS (0.625 μM diazepam). The plates were mixed on the plate shaker at 600 rpm for one minute and spun in a centrifuge at 2095×g for 7 minutes at room temperature using an Allegra benchtop centrifuge (Beckman Coulter, Fullerton, Calif.). Supernatant (100 μL) was transferred to a shallow 96-well plate (Costar) using a liquid sample handling system (Apricot, Perkin-Elmer, Boston, Mass.). The addition of 100 μL of water was added to each sample of supernatant for a final volume of 200 μL. The plates were sealed and the contents of each well were analyzed by LC-MS/MS.
Analytical quantitation: The LC-MS/MS system was comprised of an HTS-PAL autosampler (Leap Technologies, Carrboro, N.C.), an HP1200 HPLC (Agilent, Palo Alto, Calif.), and an API4000 triple quadrupole mass spectrometer (PE Sciex, a division of Applied Biosystems, Foster City, Calif.). […] The total run time, including re-equilibration, for a single injection was 2 minutes. Mass spectrometric detection of the analytes was accomplished using the ESI ionization mode. Ion current was optimized during infusion of a stock solution of propantheline, esmolol, or the representative test compound. Analyte responses, including the IS were measured by multiple reaction monitoring (MRM) of transitions unique to each compound.
Calculations: Data were acquired and peak areas were calculated for test compounds and the internal standard using Analyst 1.6.2 software (Sciex). The mean peak area ratios were calculated by averaging the peak area ratios (n=3) of each test compound and the IS for each sample.
Peak area tables were exported to BioAssay Enterprise (CambridgeSoft, Cambridge, Mass.), where the average analyte-to-internal standard peak area ratios were used to calculate percent remaining (% REM) and half-life (t1/2). Percent remaining (f) was calculated by determining the ratio of the peak area ratio at each time point to the peak area ratio of the time-zero samples. […]

Chain of KRas G12C (P01116 1-188 isoform P01116-2 G12C): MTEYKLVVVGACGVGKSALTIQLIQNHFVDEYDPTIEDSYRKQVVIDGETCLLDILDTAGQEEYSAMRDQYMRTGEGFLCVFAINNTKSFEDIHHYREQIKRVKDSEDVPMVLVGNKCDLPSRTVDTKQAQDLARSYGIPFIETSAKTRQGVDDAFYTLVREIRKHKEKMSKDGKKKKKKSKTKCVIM

SMILES	IC50 (KRas G12C) [nM]	half-life at 5 µM [1] [h]
CN1CCC[C@H]1COc1nc2c(c(N3CCN(C(=O)/C=C/CF)[C@@H](CC#N)C3)n1)CCN(c1cccc3cccc(Cl)c13)C2 [Example 479, 2-[(2S)-4-[7-(8-chloro-1-naphthyl)-2-[[(2S)-1-methylpyrrolidin-2-yl]methoxy]-6,8-dihydro-5H-pyrido[3,4-d]pyrimidin-4-yl]-1-[(E)-4-fluorobut-2-enoyl]piperazin-2-yl]acetonitrile]	0.1 to 1000	> 33.3
CN1CCC[C@H]1COc1nc2c(c(N3CCN(C(=O)/C=C/CN4CCC(F)C4)[C@@H](CC#N)C3)n1)CCN(c1cccc3cccc(Cl)c13)C2 (stereo partly drawn) [Example 480, 2-[(2S)-4-[7-(8-chloro-1-naphthyl)-2-[[(2S)-1-methylpyrrolidin-2-yl]methoxy]-6,8-dihydro-5H-pyrido[3,4-d]pyrimidin-4-yl]-1-[(E)-4-(3-fluoropyrrolidin-1-yl)but-2-enoyl]piperazin-2-yl]acetonitrile]	0.1 to 1000	> 33.3
CN1CCC[C@H]1COc1nc2c(c(N3CCN(C(=O)/C=C/CN4CC(F)C4)[C@@H](CC#N)C3)n1)CCN(c1cccc3cccc(Cl)c13)C2 [Example 481, 2-[(2S)-4-[7-(8-chloro-1-naphthyl)-2-[[(2S)-1-methylpyrrolidin-2-yl]methoxy]-6,8-dihydro-5H-pyrido[3,4-d]pyrimidin-4-yl]-1-[(E)-4-(3-fluoroazetidin-1-yl)but-2-enoyl]piperazin-2-yl]acetonitrile]	0.1 to 1000	> 33.3
CN(C/C=C/C(=O)N1CCN(c2nc(OC[C@@H]3CCCN3C)nc3c2CCN(c2cccc4cccc(Cl)c24)C3)C[C@@H]1CC#N)CC(F)(F)F [Example 482, 2-[(2S)-4-[7-(8-chloro-1-naphthyl)-2-[[(2S)-1-methylpyrrolidin-2-yl]methoxy]-6,8-dihydro-5H-pyrido[3,4-d]pyrimidin-4-yl]-1-[(E)-4-[methyl(2,2,2-trifluoroethyl)amino]but-2-enoyl]piperazin-2-yl]acetonitrile]	0.1 to 1000	> 33.3
CN1CCC[C@H]1COc1nc2c(c(N3CCN(C(=O)/C=C/C(F)F)[C@@H](CC#N)C3)n1)CCN(c1cccc3cccc(Cl)c13)C2 [Example 484, 2-[(2S)-4-[7-(8-chloro-1-naphthyl)-2-[[(2S)-1-methylpyrrolidin-2-yl]methoxy]-6,8-dihydro-5H-pyrido[3,4-d]pyrimidin-4-yl]-1-[(E)-4,4-difluorobut-2-enoyl]piperazin-2-yl]acetonitrile]	0.1 to 1000	≤ 3.33
C=C(COC)C(=O)N1CCN(c2nc(OC[C@@H]3CCCN3C)nc3c2CCN(c2cccc4cccc(Cl)c24)C3)C[C@@H]1CC#N [Example 485, 2-[(2S)-4-[7-(8-chloro-1-naphthyl)-2-[[(2S)-1-methylpyrrolidin-2-yl]methoxy]-6,8-dihydro-5H-pyrido[3,4-d]pyrimidin-4-yl]-1-[2-(methoxymethyl)prop-2-enoyl]piperazin-2-yl]acetonitrile]	0.1 to 1000	> 33.3
CN1CCC[C@H]1COc1nc2c(c(N3CCN(C(=O)/C=C/C(F)(F)F)[C@@H](CC#N)C3)n1)CCN(c1cccc3cccc(Cl)c13)C2 [Example 490, 2-((S)-4-(7-(8-chloronaphthalen-1-yl)-2-(((S)-1-methylpyrrolidin-2-yl)methoxy)-5,6,7,8-tetrahydropyrido[3,4-d]pyrimidin-4-yl)-1-((E)-4,4,4-trifluorobut-2-enoyl)piperazin-2-yl)acetonitrile]	0.1 to 1000	≤ 3.33
Cc1cccc2cccc(N3CCc4c(nc(OC[C@@H]5CCCN5C)nc4N4CCN(C(=O)/C=C/C(F)(F)F)[C@@H](CC#N)C4)C3)c12 [Example 491, 2-((S)-4-(7-(8-methylnaphthalen-1-yl)-2-(((S)-1-methylpyrrolidin-2-yl)methoxy)-5,6,7,8-tetrahydropyrido[3,4-d]pyrimidin-4-yl)-1-((E)-4,4,4-trifluorobut-2-enoyl)piperazin-2-yl)acetonitrile]	0.1 to 1000	≤ 3.33
Cc1cccc2cccc(N3CCc4c(nc(OC[C@@H]5CCCN5C)nc4N4CCN(C(=O)/C=C/C(F)F)[C@@H](CC#N)C4)C3)c12 [Example 495, 2-((S)-1-((E)-4,4-difluorobut-2-enoyl)-4-(7-(8-methylnaphthalen-1-yl)-2-(((S)-1-methylpyrrolidin-2-yl)methoxy)-5,6,7,8-tetrahydropyrido[3,4-d]pyrimidin-4-yl)piperazin-2-yl)acetonitrile]	0.1 to 1000	3.33 to 16.7
Cc1cccc2cccc(N3CCc4c(nc(OC[C@@H]5CCCN5C)nc4N4CCN(C(=O)/C=C/CCl)[C@@H](CC#N)C4)C3)c12 [Example 498, 2-((S)-1-((E)-4-chlorobut-2-enoyl)-4-(7-(8-methylnaphthalen-1-yl)-2-(((S)-1-methylpyrrolidin-2-yl)methoxy)-5,6,7,8-tetrahydropyrido[3,4-d]pyrimidin-4-yl)piperazin-2-yl)acetonitrile]	0.1 to 1000	> 33.3
Cc1cccc2cccc(N3CCc4c(nc(OC[C@@H]5CCCN5C)nc4N4CCN(C(=O)/C=C/C#N)[C@@H](CC#N)C4)C3)c12 [Example 501, (E)-4-((S)-2-(cyanomethyl)-4-(7-(8-methylnaphthalen-1-yl)-2-(((S)-1-methylpyrrolidin-2-yl)methoxy)-5,6,7,8-tetrahydropyrido[3,4-d]pyrimidin-4-yl)piperazin-1-yl)-4-oxobut-2-enenitrile]	0.1 to 1000	≤ 3.33
Cc1cccc2cccc(N3CCc4c(nc(OC[C@@H]5CCCN5C)nc4N4CCN(C(=O)/C=C\C#N)[C@@H](CC#N)C4)C3)c12 [Example 502, (Z)-4-((S)-2-(cyanomethyl)-4-(7-(8-methylnaphthalen-1-yl)-2-(((S)-1-methylpyrrolidin-2-yl)methoxy)-5,6,7,8-tetrahydropyrido[3,4-d]pyrimidin-4-yl)piperazin-1-yl)-4-oxobut-2-enenitrile]	0.1 to 1000	3.33 to 16.7
C=C(C(=O)N1CCN(c2nc(OC[C@@H]3CCCN3C)nc3c2CCN(c2cccc4cccc(Cl)c24)C3)C[C@@H]1CC#N)C(F)(F)F [Example 504, 2-[(2S)-4-[7-(8-chloro-1-naphthyl)-2-[[(2S)-1-methylpyrrolidin-2-yl]methoxy]-6,8-dihydro-5H-pyrido[3,4-d]pyrimidin-4-yl]-1-[2-(trifluoromethyl)prop-2-enoyl]piperazin-2-yl]acetonitrile]	0.1 to 1000	≤ 3.33
Cc1cccc2cccc(N3CCc4c(nc(OC[C@@H]5CCCN5C)nc4N4CCN(C(=O)/C=C/CF)[C@@H](CC#N)C4)C3)c12 [Example 506, 2-((S)-1-((E)-4-fluorobut-2-enoyl)-4-(7-(8-methylnaphthalen-1-yl)-2-(((S)-1-methylpyrrolidin-2-yl)methoxy)-5,6,7,8-tetrahydropyrido[3,4-d]pyrimidin-4-yl)piperazin-2-yl)acetonitrile]	0.1 to 1000	16.7 to 33.3
C=C(F)C(=O)N1CCN(c2nc(OC[C@@H]3CCCN3C)nc3c2CCN(c2cccc4cccc(C)c24)C3)C[C@@H]1CC#N [Example 507]	0.1 to 1000	> 33.3

Source: patent publication US10689377B2 (Mirati Therapeutics, Inc., priority 2017, dated 2020)
